Data from publication PMC5641094, “A peptide antagonist of Prep1-p160 interaction improves ceramide-induced insulin resistance in skeletal muscle cells” (Oncotarget, 2017).
Like-named read-outs stand apart in the source and are kept apart here.

How the values were obtained:
[1] = system: Prep1 and p160 protein levels in L6 cells; experiment: Western blot of Prep1 and p160 protein levels in L6 cells; assay type: cell-based, rat; conditions: for increase of Prep1 and p160 protein levels: 18h
Description: Figure 1 Effect of ceramides dose-response and time-course on Prep1 and p160 protein levels L6 skeletal muscle cells were treated with different concentration of C2cer (10μM and 100μM for 18h) (A) and for different time (10μM for 6h and 18h) (B). Protein lysates were analyzed by Western blot using antibodies for Prep1, p160 and for the beta-actin, as a loading control. Blots were detected by ECL and autoradiography. The autoradiographs are representative of four independent experiments. Asterisks denote statistically significant differences (*p<0.05; **p<0.01).
Figure 2 Effect of ceramides on Prep1 and p160 mRNA expression and of Prep1-p160 coprecipitation L6 cells were treated with C2cer (10μM) for 18h and Prep1 (A) or p160 (B) mRNA levels were analyzed by real-time RT-PCR analysis. Data were normalized by the amount of GAPDH mRNA, used as internal control. Bars represent the mean ± SD of three independent experiments, each performed in triplicate. (C) L6 cells were treated with cycloheximide (CHX) at 40μg/mL concentration for 18h and the lysates were analyzed by Western blot with anti-p160 and beta-actin. The autoradiograph shown is representative of three different experiments and subjected to densitometric analysis. (D) Protein lysates from L6 cells treated with C2cer as indicated, were immunoprecipitated with Prep1 antibody and immunoblotted with p160 or Prep1 antibodies. The autoradiograph shown is representative of three different experiments and subjected to densitometric analysis. Asterisks denote statistically significant differences (*p<0.05; **p<0.01).
Figure 3 Design and in vitro effects of Prep1(54-72) peptide on Prep1/p160 association (A) Binding curves of Prep1(59-72) and Prep1(54-72) peptides to p160_20-160 by ELISA-like assays. Biotinylated peptides at several concentrations were added in triplicate to a 96-well plate coated with p160_20-160 (0.1μM). Experiments were performed at least twice and the average results fitted using GraphPad Prism. […] (B) Competition binding experiments. His6-tagged-p160_20-160 at 0.25μM was incubated with Prep1(59-72) and Prep1(54-72) at concentrations ranging between 0.001÷10μM and added to a 96-well plate coated with Prep1_45-155 (0.10μM). Results are the average of three independent experiments. (C) L6 cells were incubated with increasing concentrations of the fluorescein-conjugated peptide (FITC-Prep1(54-72)) and peptide uptake was detected by FACS analysis of fluorescein-labeled cells. Bars represent the mean ± SD of four independent experiments. (D) L6 muscle cells incubated with Prep1(54-72) were stimulated with C2cer (10μM) for 18h. Protein lysates were immunoprecipitated with Prep1 antibodies and analyzed by Western blot using antibodies for p160 or for Prep1. (E) An aliquot of the lysate was used to measure protein expression of Prep1 and p160 and the beta-actin used as loading control. The blots were detected by ECL and autoradiography. The autoradiograph is representative of three independent experiments. Asterisks denote statistically significant differences (*p<0.05; **p<0.01).
L6 rat skeletal muscle cells (ATCC, Manassas, VA, USA) were cultured in DMEM supplemented with 10% FBS and 1% penicillin/streptomycin solution at 37°C in a humidified 95% air and 5% CO2 atmosphere (all vol./vol.). […]
Total cell lysates were obtained and separated by SDS-PAGE. […] The protein concentrations in the cell lysates were measured using a Bio-Rad DC (detergent compatible) assay. […]

[2] = target: T1, p160_20-160/Prep1_45-155 binding (Homo sapiens, UniProt Q9BQG0); experiment: ELISA-like competition of p160_20-160/Prep1_45-155 binding
T1 construct: pre-incubating the His6-tagged-p160_20-160 at 0.25μM with peptides; made in house
T1 sequence (Q9BQG0 20-160): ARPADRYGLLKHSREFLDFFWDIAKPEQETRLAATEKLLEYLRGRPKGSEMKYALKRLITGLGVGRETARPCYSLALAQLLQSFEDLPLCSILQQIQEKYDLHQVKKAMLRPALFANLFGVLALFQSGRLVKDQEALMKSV
From the text: To address the significance of the association between Prep1 and p160 mediated by C2cer, we generated a synthetic inhibitor of the Prep1/p160 interaction. […] The synthetic peptide covering such stretch of residues was therefore chosen to generate a potential inhibitor. […] Thus, we designed and chemically synthesized a peptide spanning residues 59-72, hereafter Prep1(59-72), which comprises the predicted α-helix and a short loop at the N-terminus (Supplementary Figure 2A, upper panel). We also designed and prepared an additional peptide with a slightly longer N-terminal end, named Prep1(54-72) (Supplementary Figure 2A, lower panel), to increase the probability of obtaining a molecule with helical features. […] In order to test the affinity of Prep1 synthetic peptides to p160 protein, ELISA-like experiments were developed where N-terminally biotinylated peptide variants were added to p160_20-160 – coated 96-well plates. As shown in Figure 3A either variants bound p160_20-160 domain in a dose-dependent and saturable manner. […]
Figure 3 Design and in vitro effects of Prep1(54-72) peptide on Prep1/p160 association (A) Binding curves of Prep1(59-72) and Prep1(54-72) peptides to p160_20-160 by ELISA-like assays. […] (C) L6 cells were incubated with increasing concentrations of the fluorescein-conjugated peptide (FITC-Prep1(54-72)) and peptide uptake was detected by FACS analysis of fluorescein-labeled cells. […] Protein lysates were immunoprecipitated with Prep1 antibodies and analyzed by Western blot using antibodies for p160 or for Prep1. […] The blots were detected by ECL and autoradiography. […]
ELISA experiments were performed using an integrated platform for High-Throughput Screening (Hamilton Robotics, Bonaduz, CH) comprising a fully equipped Starlet 8 channel liquid handler, a robotic arm, a washer and a multi-wavelength plate reader. […] In particular, several concentrations of biotinylated peptides at several concentrations were added to a plate coated with p160_20-160 (0.1μM) and binding was detected with streptavidin-HRP. […] The binding was detected by anti-His HRP-conjugated antibody. […]

[3] = C2cer 10μM 18h, incubated with Prep1(54-72)

In the case of `CCCCCCCCCCCCC/C=C/[C@@H](O)[C@H](CO)NC(C)=O` [C2cer, D-erythro-Sphingosine, N-Acetyl-, reference compound], the “increase of Prep1 and p160 protein levels” value ([1]; C2cer 10μM) is reported as 50% and the “increase of Prep1 and p160 protein levels” value ([1]; C2cer 100μM) is reported as 90%.

In the case of “Ac-KQAIYRHPLFPLLALLFEK-NH2 [Prep1(54-72)]”, the IC50 ([2]; His6-p160_20-160 0.25μM pre-incubated with peptide 0.001-10μM, plate coated with Prep1_45-155 (0.10μM), anti-His HRP, average of three experiments, read-out: IC50, inhibition of p160_20-160/Prep1_45-155 binding) is reported as 200 nM, the IC50 ([2]; as restated in the discussion, read-out: IC50, potency in vitro as complex inhibitor) is reported as roughly 200 nM and the “decrease of ceramide-induced p160 levels” value [1, 3] is reported as 25%. For the same compound, the “effect on ceramide-induced Prep1 levels” value [1, 3] was “did not modify”.
